# Reference: a melting point compilation (Tetko et al.; mined from patent text by program, amines drawn as free bases though some values may be those of a salt)
row,SMILES,melting point
1,CC1C=CC(C(=O)O)n2c(=O)n(CCC(=O)O)c(=O)n21 (stereo unspecified),184 to 186 °C
2,Cn1ncc2c1-c1c(S(C)(=O)=O)sc(S(N)(=O)=O)c1CC2,228 to 229 °C
3,CC(C)N(C(=O)c1c(Cl)cccc1[Si](C)(C)C)C(C)C,96 to 97.5 °C
4,c1ccc(-c2ccc(Cc3ccco3)[nH]2)cc1,79 to 80 °C
5,Cc1cc(O)c(C)c2sc(N)nc12,199 to 201 °C
6,CC(C)Cc1cc(-c2cc(C=C3SC(=O)NC3=O)ccc2OC(F)(F)F)c2c(c1)C(C)(C)CO2,142 to 146 °C
7,O=C(Nc1ccc2ccc(Cl)nc2n1)c1cncs1,292 °C
8,CC(C)CCN1C(=O)C(NC(=O)Oc2cccc(N(C)C)c2)C(=O)N(c2ccccc2F)c2ccccc21 (stereo unspecified),193 to 194 °C
9,CCCCCCCCCCCCCCCCOCC1=CCCO1,30.5 to 31.5 °C
10,CS(=O)(=O)C(=C1CN(C(c2ccc(Cl)cc2)c2ccc(Cl)cc2)C1)c1cccc(SC(F)(F)F)c1,70 °C
11,Cc1c(C(=O)O)cnn1-c1nc(-c2cc(C(F)(F)F)cc(C(F)(F)F)c2)cs1,261 °C
12,CC(C)(C)c1cc(C(O)CN)cc(C(C)(C)C)c1O (stereo unspecified),137 to 140 °C
13,CC(C)c1cc(Oc2ccc(Cl)c(Cl)c2)nc(C(C)C)c1N=CN(C)C,102 to 103 °C
14,CC1(C)CC1C(=O)NC(=CCCCCCBr)C(=O)O (stereo unspecified),151 to 153 °C
15,O=c1[nH]cnc2ccc(C(F)(F)F)cc12,209 to 211 °C
16,CCCC[C@H](NC(=O)[C@H](CC(C)C)NC(=O)c1c(F)cccc1C(F)(F)F)C(=O)CSCc1ccco1,106 to 107 °C
17,COC(=O)N(C)N=C(c1ccc(Cl)cc1)C(C)(C)C,58 to 60 °C
18,Nc1ccc2c3c(cccc13)CC2,178 to 179 °C
19,Cc1csc(C(C)(O)c2nc(C)cs2)n1,82 to 84 °C
20,CC(=O)Nc1nc(C(F)(F)F)ns1,178 °C
21,CCOCC(C)Oc1ccc(CSc2cnn(C(C)(C)C)c(=O)c2Cl)cc1 (stereo unspecified),89.2 to 90.2 °C
22,C#CC12CC3CC(CC(C3)C1)C2,80 to 82 °C

row,SMILES,melting point
1,O=C1NCN(c2ccccc2)C12CCN(CCCn1cnc3ccccc31)CC2,191 °C
2,CNc1c([N+](=O)[O-])cnc2ccccc12,168 to 170 °C
3,O=C(O)c1ccccc1NC(=O)c1ncoc1-c1ccc(C(F)(F)F)cc1,231 to 232 °C
4,CCCCC(=O)Nc1nc2ccc(Cl)cc2nc1NC(=O)CCCC,171 to 173 °C
5,O=C1Nc2ccccc2SC1CCCl (stereo unspecified),133 to 134 °C
6,CN(Cc1ccc(S(C)(=O)=O)s1)C(=O)C12CC3CC(CC(C3)C1)C2,114 to 116 °C
7,Oc1cc2ccccc2nc1O,261 to 262 °C
8,O=C(/C=C/c1ccc(F)c(F)c1)N1CCN(C(=O)c2cc(C(F)(F)F)cc(C(F)(F)F)c2)[C@H](Cc2c[nH]c3ccccc23)C1,214 to 217 °C
9,O=c1[nH]nc(Cl)cc1Nc1ccc(-c2ccncc2)nn1,263 to 265 °C
10,N#Cc1nn(-c2c(Cl)cc(C(F)(F)F)cc2Cl)c(N)c1C1(C(F)(F)F)CC1,178 to 179 °C
11,C[Si](C)(C)C=Cc1cn(C2OC(CO)C(O)C2F)c(=O)[nH]c1=O (stereo unspecified),164 to 165 °C
12,CC(n1cncn1)C(O)(Cn1cncn1)c1ccc(Cl)cn1 (stereo unspecified),156 to 157 °C
13,CCCCNC(=O)Nc1ccccc1NC(=O)NCCCC,163 to 164 °C
14,O=C(Cn1c(-c2ccc(Cl)cc2)nc2cccnc21)NCc1ccccc1,200 °C
15,N#Cc1cc(C(=O)Nc2ccc(Cl)cn2)nc(C(F)(F)F)c1,208 °C
16,CC(=O)OC(COc1ccc(/C=C/C(=O)O)c(Oc2ncc(C(F)(F)F)cc2Cl)c1)COC(C)C (stereo unspecified),134 to 135 °C
17,CCCN(CCC)Cc1cnc(-c2ncn3c2[C@@H]2CCN2C(=O)c2sccc2-3)o1,133 to 135 °C
18,COc1ccc(-c2ocnc2-c2cc(OC)c(O)c(OC)c2)cc1F,161 to 163 °C
19,CC(C)(CNc1ccc(C(=O)CCCC(=O)O)cc1)[N+](=O)[O-],160 to 161 °C
20,C[C@@H](n1cnc2cc(-c3ccc([N+](=O)[O-])cc3)sc2c1=O)[C@](O)(Cn1cncn1)c1ccc(F)cc1F,272 to 273 °C
21,COC(=O)C1=C(C(OC)OC)NC(C)=C(C(=O)OCC(C)C)C1c1ccccc1C#N (stereo unspecified),126 to 128 °C
22,CCCCCCCCc1ccc2nc(-c3ccc(COC(CCCCCC)C(F)(F)F)cc3)sc2c1 (stereo unspecified),37.2 °C

row,SMILES,melting point
1,Cc1c(NC(=O)CC(CSC(=O)COc2ccccc2)c2ccccc2)cccc1C(=O)O (stereo unspecified),130 to 132 °C
2,COc1ccccc1C(Nc1cc(Cl)c(Cl)cc1Cl)C(=O)O (stereo unspecified),188 °C
3,O=c1oc(-c2ccc(C(F)(F)F)cc2)nc2cc(F)ccc12,137 to 139 °C
4,O=C(O)COc1ccc(N2CC(=O)NS2(=O)=O)c(O)c1,185 to 188 °C
5,CCOc1cccc(C(COc2ccccc2)n2nc(C(=O)O)c3c2-c2ccc(OCc4cncnc4)cc2CC3)c1 (stereo unspecified),190 to 192 °C
6,c1ccc(C2CSC(c3ccccc3)N2)cc1 (mixture of isomers),120 °C
7,O=[N+]([O-])c1cc(CO)c(Cl)cc1F,39 to 41 °C
8,FC(F)C(F)(F)Sc1nc(-c2ccccc2)c(-c2ccccc2)[nH]1,212 to 213 °C
9,BrCCC1c2ccccc2-c2ccccc21,48 to 49 °C
10,CCCc1nc2c(N)nc(C)c(C)c2n1C1(OC)CCCCC1,192 to 193 °C
11,CCCCCCCCCC(=O)c1ccc(Br)cc1F,31 to 32 °C
12,O=C(NC1CCCCC1)OCc1ccccc1[N+](=O)[O-],101 to 102 °C
13,COc1ccc(C(=O)Nc2c(Cl)cncc2Cl)c2c1OCC2CC(=O)Nc1c(Cl)cncc1Cl (stereo unspecified),> 300 °C
14,CN(C(=O)Cc1cccc2[nH]ccc12)C1c2ccccc2CC1N1CCCC1 (stereo unspecified),202 to 204 °C
15,FC(F)(F)c1cc(Sc2ccc(Cl)cc2)c(-c2ccc(Cl)cc2)[nH]1,39 to 54 °C
16,Cc1onc(-c2ccccc2)c1-c1ccc(S(=O)(=O)NC(=O)CC(C)(C)SN=O)cc1,138 to 140 °C
17,Cc1nnc(Cl)c(-c2c(F)cc(F)cc2F)c1-c1ccc(Cl)nc1,182 to 183 °C
18,COc1cccc(C(=O)OC2CC3C(=O)NC4(C(=O)NS(=O)(=O)C5CC5)CC4C=CCOCCCC(NC(=O)OC(C)(C)C)C(=O)N3C2)c1 (stereo unspecified),149 to 151 °C
19,CC(C)(C)c1cc(C(=O)N2CC(O)C2)cc(C(C)(C)C)c1O,185 to 189 °C
20,CCN(CC)S(=O)(=O)c1ccc(C#CC(C)(O)C(F)(F)F)cc1 (stereo unspecified),140 to 144 °C

# Other lines, results leading:
row,melting point,SMILES
1,137 to 140 °C,N#CC(c1ccccc1)(c1ccccc1)[C@H]1CCCN(CCc2ccc3c(c2)CCO3)C1
2,148 to 152 °C,Cc1cc(Nc2cc(-c3c(C)cccc3C)nc(Sc3ccc4ccccc4c3)n2)[nH]n1
3,190 °C,CC(C(=O)O)c1ccc2oc(-c3ccc(Cl)cc3)nc2c1 (stereo unspecified)
4,178 to 179 °C,CC(C)c1nsc(N2CCN(C(=O)Nc3noc4ccccc34)CC2)n1
5,153 to 154 °C,COc1ccc(C2=NN(C3CCN(C(=O)[C@H](C)NC(=O)NC(C)(C)C)CC3)C(=O)[C@@H]3CC=CC[C@H]23)cc1OC
6,130 °C,CCOC(=O)C1CN(C(=O)c2ccccc2)CC1c1ccc(NC(=O)Cc2ccc(NC(=O)Nc3ccccc3C)c(OC)c2)cc1 (stereo unspecified)
7,299 °C,O=C(O)c1cnc(-c2ccc(OCc3ccccc3)cc2)nc1
8,109 to 110 °C,O=c1n(CCCF)nnn1-c1cc(Oc2ccc([N+](=O)[O-])cc2)c(Cl)cc1F
9,> 250 °C,Cc1cc(OCC(=O)O)ccc1NC(=O)c1ccc(N2CCNCC2)cc1
10,126 to 127 °C,CC(C)(C)OC(=O)NC(C)(C)c1ccc(-c2nc(Nc3ccc(OCCO)cc3)ncc2C#N)cc1
11,173 to 174 °C,CN(C)CCNC(=O)Cc1ccc(NC(=O)CCc2nc(-c3ccc4ccccc4c3)no2)cc1
12,109 to 111 °C,CN1C(c2ccc(Br)cc2)C2C(=O)N(Cc3ccc4c(c3)OCO4)C(=O)C2C1(C)C (stereo unspecified)
13,146 to 152 °C,COc1ccc(-c2sc3cc(OC)ccc3c2C(=O)c2c(OC)cccc2OC)cc1
14,184 to 189 °C,CN1CCN2c3ccccc3Cn3c(c(CO)c4ccccc43)C2C1 (stereo unspecified)
15,50 to 65 °C,COc1cc2c(cc1Nc1ncc(Cl)c(Nc3ccc(N4CCOCC4)cc3OC)n1)CCN(CCNC(C)=O)CC2
16,80 to 83 °C,Cc1cccc(COc2cccc(OCc3ccc(-c4ccccc4)cn3)c2)c1C(=O)O

row,melting point,SMILES
1,98 to 99 °C,Cc1oc(-c2ccccc2)nc1COc1ccc(Cn2cc(CO)c(C(C)C)n2)cc1
2,70 °C,COC(=O)c1ccc(C(C)(O)c2cc3cc(C(F)(F)F)ccc3n2S(=O)(=O)c2cccc(C(C)(C)C)c2)cc1 (stereo unspecified)
3,144 to 145 °C,CCOC(=O)C(=CNc1ccc(F)c(N2CCN(C(=O)OCC)CC2)n1)C(=O)OCC
4,205 to 206 °C,CCOC(=O)c1cn(CCCl)c2nc(N3CCN(C(C)=O)CC3)ncc2c1=O
5,> 230 °C,CC(=O)Nc1ccc(C23CC2C(=O)NC3=O)cc1 (stereo unspecified)
6,143 °C,N=c1sc2cc(OC(F)(F)F)ccc2n1CCSc1ccncc1
7,187 to 189 °C,Fc1ccc2occ(N3CCN(C4CCN(c5ccc(F)c6cccnc56)CC4)CC3)c2c1
8,232 to 233 °C,Cn1c(=O)[nH]c(=O)n(-c2ccc(Sc3nc4ccc(Cl)cc4s3)cc2)c1=O
9,167 to 169 °C,CC(=O)c1cc(=O)n(CCC(C(=O)NO)N(C)S(=O)(=O)c2ccc(Oc3ccccc3)cc2)c(=O)[nH]1 (stereo unspecified)
10,146 °C,Cc1ccncc1-c1nc(-c2ccc(Cl)cc2)c(Cl)s1
11,103 to 105 °C,Nc1cccc(NC(=O)C(=O)N2CCC(Cc3ccccc3)CC2)c1
12,> 250 °C,Cn1ncc(C(=O)N[C@H]2CCOC2)c1C(=O)Nc1ccn2nc(-c3ccccc3)nc2c1
13,250 to 251 °C,S=c1nc(-c2ccc(Br)cc2)[nH]n1Cc1ccccc1
14,253 to 255 °C,O=S1(=O)CCN2C=CC=C(c3ccc(Oc4ccc(C(F)(F)F)cc4)cc3)C2=N1
15,132 to 134 °C,CCOC(=O)NC(C)CCC1(O)c2ccccc2CCc2c(C)cccc21 (stereo unspecified)
16,232 °C,COc1ccc(N2CCN(c3ccc(NC4=NC(C)(C)CS4)cc3)CC2)cc1
